Assay results: patent publication US20250345350A1, “TREATING PAIN ASSOCIATED WITH CENTRAL SENSITIZATION” (Medicon Pharmaceuticals, Inc., priority 2022, published 2025)
Read-outs that look alike come from different tables or passages of the source.

Legend:
[1] = PS and metabolites in proximal and distal half of the sciatic nerve (Example 25); type: in vivo, mouse; settings: sciatic nerve halves, 30 min after last dose
Procedure: In a separate experiment we studied 8 mice with paclitaxel-induced PN treated with PS 8% ointment 3×/d for 2 wks. Mice were euthanized as above 30 minutes after the last dose of PS. From these mice we harvested both sciatic nerves dividing each into proximal and distal halves, and combined the corresponding halves of every two animals for assay of drug levels.

[2] = tested on: STZ-induced central sensitization in Sprague-Dawley rats; assay: PWT (von Frey), streptozotocin rat model of central sensitization (Example 4); type: in vivo; settings: 0.7% sulindac hydrogel 3 times a day for 1 week; 5% lidocaine cream once 30 min before; pregabalin 10 mg/kg orally once 1 h before
Procedure: Sprague-Dawley rats were fasted for 4-6 hours before being injected intraperitoneally with 45 mg/kg STZ. This was performed for all experimental groups, except the naive group. In order to prevent hypoglycaemic death, rats received 10% sucrose water as the sole water source for the first 48 hours after injection. In order to ensure only those rats considered diabetic (i.e., having non-fasting plasma glucose levels of >250 mg/dL) were included in the study, blood glucose was measured at 72 hours after the STZ injection.
Four weeks after STZ injection, the rats were randomised into treatment groups. This delay between STZ injection and treatment allows the establishment of chronic pain (allodynia) associated with central sensitization. […] 5% lidocaine cream (positive control) was applied only once to both hind paws of the rats 30 minutes before measurement of PWT.
The rats were split into 8 study groups, with those in the experimental groups (1-4) having an average body weight of about 225 g, and those in the control groups (5-8) having an average body weight of about 335 g, as follows: • 1. Group 1: naive rats (n=5) • 2. Group 2: STZ only (n=6) • 3. Group 3: STZ plus vehicle (n=6) • 4. […] Group 5: STZ plus oral vehicle (n=8) • 6. Group 6: STZ plus 0.7% sulindac hydrogel (n=7) • 7. Group 7: STZ plus 5% lidocaine cream (n=8) • 8.

[3] = Pharmacokinetics and biodistribution after 3% PS gel on outer surface of eyelid (Example 26); type: in vivo, rabbit; settings: rabbits, 3% PS gel on outer surface of upper eyelids; for AUC(0-t): read-out: AUC0-24 h; for concentration at 0.5 h / concentration at 1 h / concentration at 2 h / concentration at 4 h / concentration at 8 h / concentration at 24 h: topical, read-out: Amount in tissue, Mean ± SEM
Procedure: The pharmacokinetics and biodistribution of 3% PS gel applied to the outer surface of both upper eyelids was studies in male New Zealand White rabbits.
Eyelid and tissues of the globe were dissected and frozen quickly in liquid nitrogen until the levels of PS and its metabolites were determined by HPLC as described Xie et al. (Br J Pharmacol (2012);165:2152-66).

[4] = Pharmacokinetics and biodistribution after topical PS 8% ointment to hind paws (Example 25); type: in vivo, mouse; settings: all tissues except the sciatic nerve (higher) and DRG (equal)
Procedure: At 0.5, 1, 3, 5, 12, 18, and 24 h, mice (n=4-5 mice/time point) were euthanized with CO2 inhalation. Blood was drawn immediately after death. Tissues, including paw skin, paw muscle, leg muscle, the sciatic nerve and lumbar DRG bilaterally were dissected quickly, immediately frozen in liquid nitrogen and stored at −80° C. until analyzed.

[5] = tested on: PHN induced by HSV-1 KOS strain virus in BALB/c mice; assay: PWT (von Frey), HSV-1 mouse model of PHN, topical (Example 20); type: in vivo; settings: Post-inoculation and treatment, sulindac 5% gel on both hind paws three times a day for three days
Procedure: PHN was induced in mice by infecting them with the HSV-1 KOS strain virus and following established protocols (Ou et al, Front Immunol, 14, 1026269, 2023; Takasaki et al, Anesthesiology, 96(5), 1168-74, 2002).
; Reckitt Benckiser). Three days later, HSV-1 (10^6 PFUs in 20 μl PBS) was inoculated on the shin of the right hind paw (5×5 mm) after scarification with sandpaper. The virus was applied directly to the scarified area. The contralateral hind paw was without inoculation. Mock infection was performed using the same virus inactivated by heating at 60° C. for 1 h.
. Group 1: sham inoculated (n=5-7) • 2.
In a second experiment, the effect of the parent compound, sulindac, was tested in the same mouse model. Five days post-inoculation, sulindac (as a 5% gel), or vehicle control were administered topically onto both hind paws of mice three times a day for three days.
. Group 1: vehicle control (n=5-7) • 2. Group 2: sulindac 5% (n=5-7)

[6] = tested on: paclitaxel-induced central sensitization in C57/BL/6J mice; settings: day 14; PS hydrogel 5% or 0.7% sulindac 3 times a day; 5% lidocaine cream once 30 min before; pregabalin 10 mg/kg orally once 1 h before
Procedure: Regarding the treatment with lidocaine: 5% lidocaine cream (a positive control) was applied once to both hind paws of the mice 30 minutes before measurement of PWT.
Briefly, for mechanical allodynia, pain threshold responses were measured using the well-established method of von Frey filaments in line with that performed in the earlier Examples. The PWT test was performed on day-8 (before the first dose of paclitaxel), the day of starting treatment (day 0, at which central sensitization was fully established) and day 14 (treatment continued until day 15). The mechanical threshold, expressed as g, indicates the force of the von Frey filament to which the animal reacted.

[7] = tested on: NTG-induced migraine in C57BL/6J mice; assay: PWT (von Frey), NTG-induced migraine mouse model, topical (Example 13)
Procedure: Specifically, instead of the intraperitoneal injection of NTG, a finely crushed 0.4 mg NTG tablet (Greenstone Brand) was administered sublingually. As a control, a Practi-Nitroglycerin Sublingual 0.4 mg Simulated Medication tablet was used.
For determining mechanical allodynia, pain threshold responses were measured using the well-established method of von Frey filaments in line with that performed in the earlier Examples.
The PWT test, assessing mechanical allodynia, was performed 30 minutes after treatment. The mechanical threshold, expressed as g, indicates the force of the von Frey filament to which the animal reacted.

[8] = tested on: NTG-induced chronic migraine in mice; assay: PWT (von Frey), NTG-induced chronic migraine model, oral (Example 16)
Procedure: In particular, mice receive sublingual NTG 0.4 mg in the form of a finely crushed 0.4 mg NTG tablet (Greenstone Brand) every two days, receiving a total of five doses. For control mice, an NTG placebo (Practi-Nitroglycerin Sublingual 0.4 mg Simulated Medication tablet) was administered in the same way.
Group 1: placebo NTG (i.e, no NTG treatment, n=8) • 2. Group 2: NTG (n=8) • 3. Group 3: NTG+vehicle (n=8) • 4. […] Group 5: NTG+sulindac (n=8)
Mechanical allodynia was determined using von Frey filaments in line with that performed in the earlier Examples. The PWT test was performed prior to NTG (or placebo NTG) administration to determine baseline values, as indicated. […] The mechanical threshold, expressed as g, indicates the force of the von Frey filament to which the animal reacted.

[9] = male, New Zealand White, rabbit, topical or ocular, conjunctiva
[10] = male, New Zealand White, rabbit, topical or ocular, cornea
[11] = male, New Zealand White, rabbit, topical or ocular, eyelid
[12] = male, New Zealand White, rabbit, AH (aqueous humor)
[13] = male, New Zealand White, rabbit, conjunctiva
[14] = male, New Zealand White, rabbit, cornea
[15] = male, New Zealand White, rabbit, eyelid
[16] = male, New Zealand White, rabbit, vitreous

For `CC1=C(CC(=O)O)c2cc(F)ccc2/C1=C\c1ccc([S+](C)[O-])cc1` (centres unmarked) [sulindac], the “Fold difference (distal vs proximal)” value [1] was 8.5 fold, the “PWT, gm Mean ± SEM” value [2] was 23.2 ± 2.6 gm and the Tmax ([3]; eyelid) was 1 h. It also gave a Cmax [3, 9] of 800 nM, an AUC(0-t) [3, 9] of 2.5 ± 0.3 µM·h and a Tmax ([3]; male, New Zealand White, rabbit, topical or ocular, conjunctiva, read-out: TMax) of 8 h. It also gave a Cmax [3, 10] of 600 nM, a half-life [3, 10] of 7.4 h and an AUC(0-t) [3, 10] of 2.4 ± 0.5 µM·h. It also gave a Cmax [3, 11] of 3600 nM, a half-life [3, 11] of 1.1 h and an AUC(0-t) [3, 11] of 5.5 ± 0.8 µM·h. The concentration at 0.5 h [3, 12] was 0 nM, the concentration at 1 h [3, 12] was 0 nM and the concentration at 2 h [3, 12] was 0 nM. It also gave a concentration at 4 h [3, 12] of 0 nM, a concentration at 8 h [3, 12] of 0 nM and a concentration at 24 h [3, 12] of 0 nM. For the same compound, the concentration at 0.5 h [3, 13] was 100 ± 100 nM, the concentration at 1 h [3, 13] was 200 ± 100 nM and the concentration at 2 h [3, 13] was 0 nM. The concentration at 4 h [3, 13] was 100 ± 100 nM, the concentration at 8 h [3, 13] was 800 ± 500 nM and the concentration at 24 h [3, 13] was 0 nM. The concentration at 0.5 h [3, 14] was 400 ± 200 nM, the concentration at 1 h [3, 14] was 600 ± 100 nM and the concentration at 2 h [3, 14] was 0 nM. It also gave a concentration at 4 h [3, 14] of 300 ± 100 nM, a concentration at 8 h [3, 14] of 200 ± 200 nM and a concentration at 24 h [3, 14] of 0 nM. It also gave a concentration at 0.5 h [3, 15] of 1000 ± 100 nM, a concentration at 1 h [3, 15] of 3600 ± 1200 nM and a concentration at 2 h [3, 15] of 0 nM. For the same compound, the concentration at 4 h [3, 15] was 500 ± 200 nM, the concentration at 8 h [3, 15] was 0 nM and the concentration at 24 h [3, 15] was 0 nM. For the same compound, the concentration at 0.5 h [3, 16] was 0 nM, the concentration at 1 h [3, 16] was 0 nM and the concentration at 2 h [3, 16] was 0 nM. It also gave a concentration at 4 h [3, 16] of 0 nM, a concentration at 8 h [3, 16] of 0 nM and a concentration at 24 h [3, 16] of 0 nM. For the same compound, the “sulindac levels relative to those of PS” value [4] was “around 25%”, the “PWT, g Mean ± SEM” value [5] was 0.56 ± 0.06 g and the “PWT, g Mean ± SEM” value ([5]; listed as Sulindac) was 0.56 ± 0.06 g. For the same compound, the “PWT, g Mean ± SEM” value [6] was 0.62 ± 0.05 g, the “PWT Post-treatment Mean ± SEM” value ([7]; 30 min after treatment, PS 8% gel or sulindac 5.3% (in DMSO) on both hind paws 30 min after NTG) was 0.55 ± 0.02 g and the “PWT Baseline Mean ± SEM” value ([7]; baseline of the group, before NTG and treatment) was 1.43 ± 0.15 g. For the same compound, the “PWT, g Mean ± SEM” value ([8]; Baseline, prior to NTG administration) was 1.80 ± 0.12 g and the “PWT, g Mean ± SEM” value ([8]; Day 11, orally once a day for 11 days concurrent with NTG, PS 50 mg/kg, sulindac 33 mg/kg) was 0.43 ± 0.03 g.
